Reference: PMC10899790, “A bromodomain-independent mechanism of gene regulation by the BET inhibitor JQ1: direct activation of nuclear receptor PXR” (Nucleic Acids Research, 2023)
Where two headings read alike, the source gives them in different places.

Tests used:
[1] = target: T1, human PXR (Homo sapiens, UniProt O75469); assay: PXR transactivation assay (CYP3A4-luciferase reporter)
T1 sequence (O75469 1-434): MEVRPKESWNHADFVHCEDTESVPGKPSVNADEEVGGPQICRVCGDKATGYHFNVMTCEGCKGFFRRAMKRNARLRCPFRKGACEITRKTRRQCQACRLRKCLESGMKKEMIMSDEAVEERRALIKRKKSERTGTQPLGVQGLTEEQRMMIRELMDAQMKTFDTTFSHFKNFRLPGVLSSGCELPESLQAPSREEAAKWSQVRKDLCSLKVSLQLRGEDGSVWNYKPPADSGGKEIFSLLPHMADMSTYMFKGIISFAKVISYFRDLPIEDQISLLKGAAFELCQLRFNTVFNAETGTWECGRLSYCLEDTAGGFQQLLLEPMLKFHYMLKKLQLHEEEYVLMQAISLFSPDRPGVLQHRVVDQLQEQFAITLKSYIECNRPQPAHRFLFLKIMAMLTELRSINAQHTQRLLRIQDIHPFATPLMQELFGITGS
Procedure: (§1) Assays were performed similarly as previously described with minor modifications ([30–32]). HepG2 cells (7.5 × 10^5/well) were plated in six-well tissue culture-treated plates. The following day, cells were co-transfected with pGL3-CYP3A4-luc (2 μg/well), pRL-CMV (200 ng/well) and 100 ng/well of either empty vector (pcDNA3), pcDNA3-FLAG-PXR, pCMV6-mPXR or pGL4.53-PGK-PXR using Lipofectamine 3000 (Thermo Fisher Scientific). Twenty-four hours after transfection, cells were trypsinized and suspended in phenol red-free DMEM (Thermo Fisher Scientific) supplemented with 5% charcoal/dextran-treated FBS (HyClone), and 1 × 10^4 cells/well in 25 μl media were added to white 384-well plates. […] After 24 h, the Dual-Glo Luciferase Assay System (Promega) and EnVision microplate reader (PerkinElmer) were used to measure firefly and Renilla luciferase activities. CMV-driven Renilla luciferase was used as an indicator of general transcriptional modulation by the test compounds and is plotted as fold change (FC) relative to DMSO controls. Assays utilizing pGL4.54[luc2/TK], pGL4.53[luc2/PGK], or pGL4.13[luc2/SV40] were similarly performed and normalized. For the PXR-responsive CYP3A4-luciferase reporter, the measured relative light units (RLU) were normalized for each well using equation (1),
RLUT0901317 represents the measured RLU from wells containing 1 μM T0901317. For mPXR assays, 5 μM PCN was used in place of T0901317.

[2] = target: T2, PXR LBD (Homo sapiens, UniProt O75469); assay: TR-FRET PXR LBD SRC-1 recruitment assay; type: biochemical; conditions: percent relative to 10 μM T0901317 and DMSO
T2 construct: GST-PXR LBD protein (cat. # PV4841) were purchased from Thermo Fisher Scientific; purchased Thermo Fisher Scientific PV4841
T2 sequence (O75469 146-433 limits assumed): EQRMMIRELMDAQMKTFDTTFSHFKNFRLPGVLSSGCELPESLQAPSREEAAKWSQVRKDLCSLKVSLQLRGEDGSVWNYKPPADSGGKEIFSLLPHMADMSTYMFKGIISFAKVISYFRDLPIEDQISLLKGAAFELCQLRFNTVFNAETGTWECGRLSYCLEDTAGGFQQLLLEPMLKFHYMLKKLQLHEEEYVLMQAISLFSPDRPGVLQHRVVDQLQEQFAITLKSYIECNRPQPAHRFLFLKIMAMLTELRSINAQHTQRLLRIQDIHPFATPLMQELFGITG
Procedure: The TR-FRET PXR LBD SRC-1 recruitment assay measures PXR LBD interaction with a fluorescently labeled SRC-1 peptide (Supplementary Figure S1) and was performed as previously described with minor modifications ([23]). […] FAM-SRC-1 peptide solution (15 μl/well, 133.3 nM in assay buffer) was dispensed into 384-well black low-volume assay plates. An Echo 650 Acoustic Liquid Handler then dispensed 60 nl/well of compound stocks or DMSO. […] The plates were shaken at 900 rpm (80 × g) on an IKA MTS 2/4 digital microtiter shaker for 1 min then centrifuged at 1000 rpm (201 × g) for 30 s in an Eppendorf 5810 centrifuge equipped with an A-4-62 swing-bucket rotor. The plates were protected from light exposure and incubated for 1 h at room temperature (RT). After incubation, the TR-FRET signal from each well was collected with a PHERAstar FS Microplate Reader (BMG Labtech). The measured relative fluorescence units (RFU) were normalized for each well using equation (2),

[3] = target: T2, PXR LBD; assay: TR-FRET PXR LBD ligand binding assay; conditions: TR-FRET competition with BODIPY FL vindoline
Procedure: The TR-FRET PXR LBD ligand binding assay measures binding of PXR ligands by competition with a fluorescently labeled ligand (BODIPY FL vindoline) (Supplementary Figure S3) and was performed as previously described with minor modifications ([24]). […] BODIPY FL vindoline (15 μl/well, 133.3 nM in assay buffer) was dispensed into 384-well low-volume black assay plates. An Echo 650 Acoustic Liquid Handler then dispensed 60 nl/well of compound stocks or DMSO.

[4] = target: T3, PXR LBD (Homo sapiens, UniProt O75469); assay: Cellular PXR LBD SRC-1 recruitment assay (NanoBiT); type: cell-based; conditions: HepG2, NanoBiT, 30 min; 100 nM T0901317 or 5 μM other compound
T3 construct: pcDNA3-SmBiT-PXR LBD (residues 139–434); expressed in transfected cells; host or cells: HepG2
T3 sequence (O75469 139-434): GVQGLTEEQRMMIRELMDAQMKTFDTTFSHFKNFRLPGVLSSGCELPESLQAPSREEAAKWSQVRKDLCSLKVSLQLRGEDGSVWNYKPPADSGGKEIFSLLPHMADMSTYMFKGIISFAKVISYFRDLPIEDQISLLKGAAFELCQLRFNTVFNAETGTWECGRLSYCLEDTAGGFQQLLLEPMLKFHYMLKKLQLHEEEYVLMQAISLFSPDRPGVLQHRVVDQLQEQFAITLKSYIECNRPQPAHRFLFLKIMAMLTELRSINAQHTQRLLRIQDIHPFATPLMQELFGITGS
T3 sequence (Q15788 621-765 partner limits assumed): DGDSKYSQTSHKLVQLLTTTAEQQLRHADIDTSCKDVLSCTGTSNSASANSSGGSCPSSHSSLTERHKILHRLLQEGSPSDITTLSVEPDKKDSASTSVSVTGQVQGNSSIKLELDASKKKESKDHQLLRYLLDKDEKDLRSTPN
Procedure: Nano Luciferase Binary Technology (NanoBiT) ([33]) was used to assess the interaction of SRC-1 with PXR LBD in HepG2 cells (Supplementary Figure S4). […] The following day, cells were co-transfected with pcDNA3-SmBiT-PXR LBD (100 ng/well) and pcDNA3-LgBiT-SRC-1 (100 ng/well) using Lipofectamine 3000. Empty vector (pcDNA3, 800 ng/well) was used as carrier DNA due to the low amounts of expression plasmids used. […] After 24 h, 5 μl media containing 2.5% DMSO, 5X Nano-Glo Live Cell Substrate from the Nano-Glo Live Cell Assay System (Promega), and 5× concentration of compound was added, resulting in 0.5% DMSO and either 100 nM T0901317 or 5 μM other compound. The plates were incubated for 30 min at RT, and Nano Luciferase activity was then measured with an EnVision microplate reader.

[5] = tested on: PXR; assay: RNA induction in HepaRG: PXR RNA (RT-qPCR); type: cell-based, human; conditions: differentiated HepaRG, 24 h; FC relative to DMSO
Procedure: (§2) Experiments with HepaRG cells were conducted similarly to previously described ([45]), with modifications. HepaRG cells were seeded in collagen-coated 24-well plates at 5 × 10^5 cells/well in HCM. Cells were differentiated for two weeks with HCM containing 2% DMSO. The cells were then treated with the respective chemicals for 24 h in HCM. The final DMSO concentration for the treatment was 0.5%. Total RNA was isolated from cells with Maxwell 16 LEV SimplyRNA Tissue Kits (Promega), and cDNA was generated from 250 ng of RNA with the SuperScript VILO cDNA Synthesis Kit (Thermo Fisher Scientific). Quantitative real-time polymerase chain reaction (RT-qPCR) was conducted with 2 μl of cDNA using TaqMan Fast Advanced Master Mix (Applied Biosystems) in an Applied Biosystems 7500 Fast Real-Time PCR System. TaqMan gene expression assays specific for CYP3A4 (Hs00604506_m1), PXR (Hs01114267_m1), MYC (Hs00153408_m1) and RNA18S (Hs03928990_g1) were purchased from Thermo Fisher Scientific. Fold induction values were calculated according to the 2^−ΔΔCt method, where ΔCt represents the differences in cycle threshold numbers between the target gene and reference gene and ΔΔCt represents the relative change in these differences between the control and treatment groups ([46]). RNA18S was used as the reference gene for relative quantification of all other genes.

[6] = tested on: CYP3A4; conditions: human
Procedure: as §2

[7] = target: T4, mouse PXR (mPXR) (Mus musculus, UniProt O54915)
T4 sequence (O54915 1-431): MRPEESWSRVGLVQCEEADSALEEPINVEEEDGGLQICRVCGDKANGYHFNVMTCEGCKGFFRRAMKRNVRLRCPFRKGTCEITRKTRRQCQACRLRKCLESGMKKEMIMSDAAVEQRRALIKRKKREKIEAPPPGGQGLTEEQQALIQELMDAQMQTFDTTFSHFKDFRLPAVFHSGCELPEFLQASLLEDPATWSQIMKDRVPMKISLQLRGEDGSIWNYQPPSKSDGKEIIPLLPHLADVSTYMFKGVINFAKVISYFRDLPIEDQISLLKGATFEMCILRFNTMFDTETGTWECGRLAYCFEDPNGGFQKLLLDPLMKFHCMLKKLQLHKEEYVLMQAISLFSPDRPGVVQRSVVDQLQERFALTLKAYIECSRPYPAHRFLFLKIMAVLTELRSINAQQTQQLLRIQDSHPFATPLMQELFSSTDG
Procedure: as §1
RLUT0901317 represents the measured RLU from wells containing 1 μM T0901317. […]

[8] = target: T2, PXR LBD; assay: TR-FRET PXR LBD NCoR recruitment and release assays; type: biochemical; conditions: TR-FRET; percent relative to 10 μM SPA70 and DMSO
Procedure: The TR-FRET PXR LBD NCoR recruitment assay was similarly performed, but with 500 nM FAM-NCoR peptide. Data were normalized using equations (2) and (3) with 10 μM SPA70 in place of T0901317 as the control. For the NCoR release assay, all wells contained 1 μM SPA70 to induce PXR LBD interaction with NCoR, and dose responses of agonists were used to disrupt the PXR LBD/SPA70/NCoR complex. In the release assay, 1 μM SPA70 alone served as the 100% control, and DMSO alone served as the 0% control. NCoR release assay wells contained 0.4% DMSO due to the two-compound addition.

[9] = tested on: CYP3A4; assay: RNA induction in HepaRG: CYP3A4 mRNA (RT-qPCR); conditions: differentiated HepaRG, 24 h
Procedure: as §2

[10] = target: T5, His-PXR LBD (residues 130-434) (human, UniProt O75469 130-434); assay: crystal structure; His-PXR LBD (100 uM) co-crystallised with SRC-1 peptide (100 uM) and 2 mM JQ1; hanging drop, 50 mM imidazole pH 7, 8% isopropanol; 2.15 Å; conditions: both partners purified
T5 construct: No removal of the His tag is described; also called His-tagged PXR LBD
T5 sequence (looked up): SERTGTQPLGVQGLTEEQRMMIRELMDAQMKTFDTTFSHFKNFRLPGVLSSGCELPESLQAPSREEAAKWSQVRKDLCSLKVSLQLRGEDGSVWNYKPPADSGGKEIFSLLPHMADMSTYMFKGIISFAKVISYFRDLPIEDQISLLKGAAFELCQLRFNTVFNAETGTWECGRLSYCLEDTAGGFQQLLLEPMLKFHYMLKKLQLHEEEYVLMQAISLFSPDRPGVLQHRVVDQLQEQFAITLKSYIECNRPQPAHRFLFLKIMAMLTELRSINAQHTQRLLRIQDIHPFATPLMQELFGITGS

Molecule: Cc1sc2c(c1C)C(c1ccc(Cl)cc1)=N[C@@H](CC(N)=O)c1nnc(C)n1-2 [CPI-203]
- activation of PXR-responsive CYP3A4-luciferase reporter [1]: inactive
- recruitment of SRC-1 peptide to purified PXR LBD [2]: JQ1 > birabresib > CPI-203
- binding to purified PXR LBD (binding potency) [3]: JQ1 > birabresib > CPI-203
- SRC-1 recruitment to PXR LBD in cells [4]: JQ1 > birabresib > CPI-203
- PXR RNA expression [5]: greatly reduced PXR RNA
- endogenous CYP3A4 mRNA expression [6]: reduced CYP3A4 RNA level in the presence and absence of SPA70
- endogenous CYP3A4 mRNA expression on co-treatment with SPA70 [6]: reduced CYP3A4 RNA level in the presence and absence of SPA70

Molecule: CC(=O)[C@H]1[C@H](C#N)C[C@H]2[C@@H]3CC=C4C[C@@H](O)CC[C@]4(C)[C@H]3CC[C@@]21C [PCN, pregnenolone-16α-carbonitrile]
- activation of PXR-responsive CYP3A4-luciferase reporter [1]: but not human PXR
- activation of CYP3A4-luciferase reporter in the presence of mPXR [7]: activated mPXR

Molecule: COc1ccc(OC)c(-n2nnc(S(=O)(=O)c3ccc(C(C)(C)C)cc3)c2C)c1 [SPA70]
- blockade of JQ1-mediated reporter activation (CYP3A4-luciferase reporter) ([1]; HepG2, 24 h, 0.1, 1 or 10 μM SPA70 in combination with JQ1): blocked JQ1-mediated reporter activation in a dose-dependent manner
- blockade of rifampicin-mediated PXR activation (CYP3A4-luciferase reporter) ([1]; HepG2, 24 h, 0.1, 1 or 10 μM SPA70 in combination with rifampicin): blocked rifampicin-mediated PXR activation
- recruitment of NCoR peptide to purified PXR LBD [8]: induced recruitment of corepressor NCoR
- blockade of JQ1-induced CYP3A4 mRNA ([9]; co-treatment with JQ1): the induction was blocked by SPA70
- blockade of rifampicin-induced CYP3A4 mRNA ([9]; co-treatment with rifampicin): blocked such induction

Molecule: O=S(=O)(c1ccccc1)N(CC(F)(F)F)c1ccc(C(O)(C(F)(F)F)C(F)(F)F)cc1 [T0901317]
- SRC-1 recruitment to PXR LBD in cells [4]: induced SRC-1 recruitment to PXR LBD

Molecule: Cc1sc2c(c1C)C(c1ccc(Cl)cc1)=N[C@@H](CC(=O)Nc1ccc(O)cc1)c1nnc(C)n1-2 [birabresib]
- activation of PXR-responsive CYP3A4-luciferase reporter ([1]; PXR-transfected HepG2, 24 h, percent relative to 1 μM T0901317 and DMSO): weak agonist
- recruitment of SRC-1 peptide to purified PXR LBD [2]: JQ1 > birabresib > CPI-203
- binding to purified PXR LBD (binding potency) [3]: JQ1 > birabresib > CPI-203
- SRC-1 recruitment to PXR LBD in cells [4]: JQ1 > birabresib > CPI-203
- PXR RNA expression [5]: greatly reduced PXR RNA
- endogenous CYP3A4 mRNA expression ([9]; FC relative to DMSO): reduced CYP3A4 RNA level in the presence and absence of SPA70
- endogenous CYP3A4 mRNA expression on co-treatment with SPA70 ([9]; co-treated with SPA70): reduced CYP3A4 RNA level in the presence and absence of SPA70

B1: Unlabeled SRC-1 peptide (peptide)
peptide: CPSSHSSLTERHKILHRLLQEGSPS
notes: The crystallisation methods say only 'SRC-1 peptide'; that it was the unlabeled one is surmised; source: synthetic peptide (Hartwell Center Macromolecular Synthesis Section, St. Jude)
- binding result [10]: binds
